According to patent publication US11884671B2, “Purinone compounds and their use in treating cancer” (ASTRAZENECA AB, priority 2018, dated 2024):

How the values were obtained:
Discrete PK Rat = type: in vivo, han wistar rats; conditions: Han Wistar, plasma, iv, read-out: volume of distribution (V)
Discrete PK Dog = conditions: beagle, iv, 0.5 mg/kg
DNAPK = DNAPK (Homo sapiens (Human), UniProt P78527); assay: DNAPK cellular potency assay (DNA-PK cell), pS2056-DNAPK ELISA in irradiated A549 cells; type: cell-based; conditions: 8 Gy radiation, arithmetic mean of two or more experiments, read-out: DNA-PK cell pIC50 (converted)
Method: The DNAPK cell ELISA assay was performed in the A549 cell line. A549 cells were cultured in cell media composed of MEM-F12 (Minimum Essential Medium F12 Sigma #D6421), 10% (v/v) Foetal Calf Serum and 1% (v/v) 200 mM L-Glutamine. […] The following day the Greiner ELISA plates were washed 3× with PBS-T and blocked with 3% BSA/PBS for 2 h, before a further 3× wash with PBS-T.
The cell plates were then incubated for 1 h at 37° C. before receiving a radiation dose of 8 Gy (XRAD 320, table height 65). The cells were incubated for a further 1 h before removal of cell media. […] Cell lysates ([…]) were transferred to the DNAPK antibody-coated ELISA plates using a CyBio Felix liquid handling platform, and ELISA plates were incubated at 4° C. overnight.
The following day, ELISA plates were washed 3× with PBS-T and dispensed with in-house pS2056-DNAPK antibody (0.5 μg/mL in 3% BSA/PBS) at 20 ul/well.
The fluorescence intensity of individual wells was determined using a PerkinElmer EnVision plate reader.
Data was analysed and IC50 values were calculated using Genedata Screener® software (Genedata, Inc., Basel, Switzerland).

TTK = TTK (Homo sapiens (Human), UniProt P33981); assay: TTK enzyme assay (LanthaScreen Eu Kinase Binding); conditions: arithmetic mean of two or more experiments
TTK, sequence (P33981 whole entry): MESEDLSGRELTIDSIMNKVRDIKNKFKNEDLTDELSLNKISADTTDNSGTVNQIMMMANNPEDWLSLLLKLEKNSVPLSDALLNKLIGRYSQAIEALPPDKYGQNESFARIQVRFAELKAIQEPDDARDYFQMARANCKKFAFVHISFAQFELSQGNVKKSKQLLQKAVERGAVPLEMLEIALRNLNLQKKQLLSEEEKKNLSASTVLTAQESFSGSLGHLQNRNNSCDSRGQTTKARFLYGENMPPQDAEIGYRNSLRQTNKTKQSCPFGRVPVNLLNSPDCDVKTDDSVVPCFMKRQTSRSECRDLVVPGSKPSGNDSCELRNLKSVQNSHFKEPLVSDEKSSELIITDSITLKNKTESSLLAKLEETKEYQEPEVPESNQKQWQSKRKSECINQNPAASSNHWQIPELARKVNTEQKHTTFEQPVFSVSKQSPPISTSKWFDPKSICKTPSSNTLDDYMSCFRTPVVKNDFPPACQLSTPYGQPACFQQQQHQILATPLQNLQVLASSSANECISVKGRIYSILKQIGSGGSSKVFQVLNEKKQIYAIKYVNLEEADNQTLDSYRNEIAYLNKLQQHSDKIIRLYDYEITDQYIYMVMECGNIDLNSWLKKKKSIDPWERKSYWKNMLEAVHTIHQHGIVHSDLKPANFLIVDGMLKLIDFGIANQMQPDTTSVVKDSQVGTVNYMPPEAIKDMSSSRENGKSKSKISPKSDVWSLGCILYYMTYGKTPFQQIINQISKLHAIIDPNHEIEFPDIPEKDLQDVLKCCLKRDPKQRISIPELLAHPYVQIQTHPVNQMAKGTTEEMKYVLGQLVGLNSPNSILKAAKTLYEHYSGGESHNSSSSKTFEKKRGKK
Method: The inhibitory activity of compounds against TTK was determined in a LanthaScreen® Eu Kinase Binding assay run by ThermoFisher Scientific as part of their SelectScreen® Biochemical Kinase Profiling Service. The LanthaScreen® Eu Kinase Binding assay format uses binding of an Alexa Fluor® conjugate or “tracer” to a kinase, which is detected by addition of a Eu-labeled anti-tag antibody. […] The degree of FRET measured in the assay is used to determine the binding of a compound.
(§1) 10 point three-fold dilution compound concentration-response curves, with a top concentration of 10 μM were generated from 10 mM stocks of compound solubilised in DMSO. All assays were performed in white, low volume Greiner 384-well plates (cat. #784207, Greiner), in a total reaction volume of 16 μL and 1% (v/v) final DMSO concentration. […] Plates were then read using a fluorescence plate reader. IC50 values were calculated using XLfit software (IDBS Ltd, Surrey, UK), with the curve fit to model number 205 (sigmoidal dose-response model).

JAK1 = JAK1 (Homo sapiens (Human), UniProt P23458); assay: JAK1 enzyme assay (Z'-LYTE); type: biochemical; conditions: 75 μM ATP; arithmetic mean of two or more experiments
JAK1, sequence (P23458 whole entry): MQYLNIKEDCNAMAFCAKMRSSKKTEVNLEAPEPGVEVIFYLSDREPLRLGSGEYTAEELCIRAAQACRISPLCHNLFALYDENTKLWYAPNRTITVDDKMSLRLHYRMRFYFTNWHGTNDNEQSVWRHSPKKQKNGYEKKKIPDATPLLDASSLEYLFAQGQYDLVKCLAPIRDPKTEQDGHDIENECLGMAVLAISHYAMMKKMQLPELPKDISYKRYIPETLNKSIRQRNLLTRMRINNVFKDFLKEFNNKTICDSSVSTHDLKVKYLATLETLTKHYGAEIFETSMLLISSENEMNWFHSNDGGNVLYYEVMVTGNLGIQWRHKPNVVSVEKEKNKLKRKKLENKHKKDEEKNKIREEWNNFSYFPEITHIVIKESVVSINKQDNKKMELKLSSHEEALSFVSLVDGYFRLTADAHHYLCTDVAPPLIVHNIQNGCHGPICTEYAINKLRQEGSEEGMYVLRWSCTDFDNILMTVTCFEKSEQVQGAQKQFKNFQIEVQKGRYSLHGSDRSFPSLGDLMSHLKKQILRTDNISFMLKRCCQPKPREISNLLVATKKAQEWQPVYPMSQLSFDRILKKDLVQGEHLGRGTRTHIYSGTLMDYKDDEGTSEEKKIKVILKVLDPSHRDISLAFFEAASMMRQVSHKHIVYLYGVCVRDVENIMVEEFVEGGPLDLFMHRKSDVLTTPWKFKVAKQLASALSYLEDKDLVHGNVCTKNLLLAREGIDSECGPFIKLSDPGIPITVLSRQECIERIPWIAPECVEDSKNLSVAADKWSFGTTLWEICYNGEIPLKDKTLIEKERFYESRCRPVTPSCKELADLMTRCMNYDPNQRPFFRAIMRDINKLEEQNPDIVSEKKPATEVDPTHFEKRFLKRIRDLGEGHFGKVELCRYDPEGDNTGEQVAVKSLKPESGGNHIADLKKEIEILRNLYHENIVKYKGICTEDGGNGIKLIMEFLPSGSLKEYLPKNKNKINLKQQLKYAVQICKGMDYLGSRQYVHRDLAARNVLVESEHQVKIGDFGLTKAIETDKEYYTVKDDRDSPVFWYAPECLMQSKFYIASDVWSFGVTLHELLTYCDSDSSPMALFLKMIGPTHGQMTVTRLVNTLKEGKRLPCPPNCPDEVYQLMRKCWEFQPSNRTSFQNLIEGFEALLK
Method: (§2) The inhibitory activity of compounds against AURKA, AURKB, JAK1, JAK2 and JAK3 was determined in Z′-LYTE® assays run by ThermoFisher Scientific as part of their SelectScreen® Biochemical Kinase Profiling Service. The Z′-LYTE® biochemical assay format employs a fluorescence-based, coupled-enzyme format and is based on the differential sensitivity of phosphorylated and non-phosphorylated peptides to proteolytic cleavage. The peptide substrate is labeled with two fluorophores—one at each end—that make up a FRET pair. In the primary reaction, the kinase transfers the gamma-phosphate of ATP to a single tyrosine, serine or threonine residue in a synthetic FRET-peptide. In the secondary reaction, a site-specific protease recognises and cleaves non-phosphorylated FRET-peptides. Phosphorylation of FRET-peptides suppresses cleavage by the Development Reagent. Cleavage disrupts FRET between the donor (i.e., coumarin) and acceptor (i.e., fluorescein) fluorophores on the FRET-peptide, whereas uncleaved, phosphorylated FRET-peptides maintain FRET. A ratiometric method, which calculates the ratio (the Emission Ratio) of donor emission to acceptor emission after excitation of the donor fluorophore at 400 nm, is used to quantitate reaction progress. Both cleaved and uncleaved FRET-peptides contribute to the fluorescence signals and therefore to the Emission Ratio. The extent of phosphorylation of the FRET-peptide can be calculated from the Emission Ratio.
as §1, with “black, non-binding,” for “white,”, “Corning” for “Greiner”, “#4514, Corning),” for “#784207, Greiner),”, “10” for “16”, “The kinase reaction was” for “Plates were”, “quenched by the addition of 5 μL of Development Reagent (ThermoFisher Scientific proprietary). […]” for “read using a fluorescence plate reader.”
JAK1: The 2×JAK/Tyr 06 (ThermoFisher Scientific proprietary) mixture was prepared in 50 mM HEPES pH 6.5, 0.01% BRIJ-35, 10 mM MgCl2, 1 mM EGTA, 0.02% NaN3. […] After the 1 hour Kinase Reaction incubation, 5 μL of a 1:128 dilution of Development Reagent was added.

JAK2 = JAK2 (Homo sapiens (Human), UniProt O60674); assay: JAK2 enzyme assay (Z'-LYTE); type: biochemical; conditions: 25 μM ATP; arithmetic mean of two or more experiments
JAK2, sequence (O60674 whole entry): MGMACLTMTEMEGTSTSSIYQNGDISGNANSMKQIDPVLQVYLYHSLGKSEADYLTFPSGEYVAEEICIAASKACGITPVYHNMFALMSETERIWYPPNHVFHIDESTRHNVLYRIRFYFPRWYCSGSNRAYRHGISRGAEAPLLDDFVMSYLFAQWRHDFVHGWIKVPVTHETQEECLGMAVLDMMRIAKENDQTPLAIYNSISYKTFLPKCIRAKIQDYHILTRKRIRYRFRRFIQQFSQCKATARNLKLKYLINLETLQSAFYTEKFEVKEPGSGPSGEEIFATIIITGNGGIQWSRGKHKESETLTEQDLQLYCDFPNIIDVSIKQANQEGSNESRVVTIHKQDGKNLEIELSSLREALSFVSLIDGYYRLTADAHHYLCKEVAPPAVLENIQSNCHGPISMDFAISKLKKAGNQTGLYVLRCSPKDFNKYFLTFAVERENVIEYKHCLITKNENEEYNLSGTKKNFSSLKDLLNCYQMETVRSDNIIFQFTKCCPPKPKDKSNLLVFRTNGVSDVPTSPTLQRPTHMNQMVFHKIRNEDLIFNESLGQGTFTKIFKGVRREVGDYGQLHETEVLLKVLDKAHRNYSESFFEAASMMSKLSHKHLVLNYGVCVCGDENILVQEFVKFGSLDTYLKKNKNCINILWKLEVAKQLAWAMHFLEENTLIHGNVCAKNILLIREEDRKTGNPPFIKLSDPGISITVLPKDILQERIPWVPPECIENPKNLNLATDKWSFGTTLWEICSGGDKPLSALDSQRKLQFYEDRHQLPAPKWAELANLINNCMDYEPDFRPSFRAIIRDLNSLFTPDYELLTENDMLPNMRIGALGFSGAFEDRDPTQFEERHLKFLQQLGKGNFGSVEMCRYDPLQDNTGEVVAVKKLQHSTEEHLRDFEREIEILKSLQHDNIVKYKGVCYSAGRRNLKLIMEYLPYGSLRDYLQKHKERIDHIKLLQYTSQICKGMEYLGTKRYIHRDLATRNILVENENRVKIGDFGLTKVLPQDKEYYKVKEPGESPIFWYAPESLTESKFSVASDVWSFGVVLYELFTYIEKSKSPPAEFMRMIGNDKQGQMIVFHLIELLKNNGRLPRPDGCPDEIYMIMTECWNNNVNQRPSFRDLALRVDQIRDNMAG
Method: as §2
as §1, with “black, non-binding,” for “white,”, “Corning” for “Greiner”, “#4514, Corning),” for “#784207, Greiner),”, “10” for “16”, “The kinase reaction was” for “Plates were”, “quenched by the addition of 5 μL of Development Reagent (ThermoFisher Scientific proprietary). […]” for “read using a fluorescence plate reader.”
JAK2: The 2×JAK2/Tyr 06 (ThermoFisher Scientific proprietary) mixture was prepared in 50 mM HEPES pH 7.5, 0.01% BRIJ-35, 10 mM MgCl2, 1 mM EGTA. […] After the 1 hour Kinase Reaction incubation, 5 μL of a 1:128 dilution of Development Reagent was added.

JAK3 = JAK3 (Homo sapiens (Human), UniProt P52333); assay: JAK3 enzyme assay (Z'-LYTE); type: biochemical; conditions: 10 μM ATP; arithmetic mean of two or more experiments
JAK3, sequence (P52333 whole entry): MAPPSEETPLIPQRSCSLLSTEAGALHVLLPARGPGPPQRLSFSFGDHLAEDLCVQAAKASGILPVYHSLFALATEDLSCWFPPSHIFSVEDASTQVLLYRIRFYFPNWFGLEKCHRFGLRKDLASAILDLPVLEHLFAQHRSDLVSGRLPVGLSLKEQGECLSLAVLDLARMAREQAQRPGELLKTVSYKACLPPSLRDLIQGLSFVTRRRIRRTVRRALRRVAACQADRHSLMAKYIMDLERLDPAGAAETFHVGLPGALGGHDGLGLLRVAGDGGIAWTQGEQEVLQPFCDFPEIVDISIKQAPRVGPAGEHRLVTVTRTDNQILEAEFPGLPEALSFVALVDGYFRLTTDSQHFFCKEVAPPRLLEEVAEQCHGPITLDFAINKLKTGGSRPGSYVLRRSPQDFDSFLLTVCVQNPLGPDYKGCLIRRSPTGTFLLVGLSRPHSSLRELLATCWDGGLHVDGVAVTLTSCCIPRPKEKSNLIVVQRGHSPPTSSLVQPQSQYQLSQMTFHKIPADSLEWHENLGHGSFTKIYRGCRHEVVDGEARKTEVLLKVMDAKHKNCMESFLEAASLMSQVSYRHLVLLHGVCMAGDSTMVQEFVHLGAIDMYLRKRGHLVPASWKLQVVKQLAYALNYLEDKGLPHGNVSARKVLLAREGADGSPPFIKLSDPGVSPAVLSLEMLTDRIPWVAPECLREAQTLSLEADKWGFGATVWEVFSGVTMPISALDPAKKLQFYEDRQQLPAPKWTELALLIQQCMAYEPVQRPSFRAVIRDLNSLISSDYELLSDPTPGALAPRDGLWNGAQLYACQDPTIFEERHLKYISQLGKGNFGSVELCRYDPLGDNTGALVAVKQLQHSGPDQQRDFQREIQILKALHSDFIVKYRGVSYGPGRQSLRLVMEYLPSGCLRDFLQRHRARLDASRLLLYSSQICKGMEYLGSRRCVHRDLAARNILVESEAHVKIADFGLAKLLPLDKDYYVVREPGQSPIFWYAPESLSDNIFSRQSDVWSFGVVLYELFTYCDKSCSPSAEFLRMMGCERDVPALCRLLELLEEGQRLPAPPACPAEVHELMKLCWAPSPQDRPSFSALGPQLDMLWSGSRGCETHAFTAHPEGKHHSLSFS
Method: as §2
as §1, with “black, non-binding,” for “white,”, “Corning” for “Greiner”, “#4514, Corning),” for “#784207, Greiner),”, “10” for “16”, “The kinase reaction was” for “Plates were”, “quenched by the addition of 5 μL of Development Reagent (ThermoFisher Scientific proprietary). […]” for “read using a fluorescence plate reader.”
JAK3: The 2×JAK3/Tyr 06 (ThermoFisher Scientific proprietary) mixture was prepared in 50 mM HEPES pH 7.5. 0.01% BRIJ-35, 10 mM MgCl2, 1 mM EGTA. […] After the 1 hour Kinase Reaction incubation, 5 μL of a 1:128 dilution of Development Reagent was added.

AURKA (Aurora A) = AURKA (Aurora A) (Homo sapiens (Human), UniProt O14965); assay: Aurora-A enzyme assay (Z'-LYTE); type: biochemical; conditions: 10 μM ATP; arithmetic mean of two or more experiments
AURKA (Aurora A), sequence (O14965 whole entry): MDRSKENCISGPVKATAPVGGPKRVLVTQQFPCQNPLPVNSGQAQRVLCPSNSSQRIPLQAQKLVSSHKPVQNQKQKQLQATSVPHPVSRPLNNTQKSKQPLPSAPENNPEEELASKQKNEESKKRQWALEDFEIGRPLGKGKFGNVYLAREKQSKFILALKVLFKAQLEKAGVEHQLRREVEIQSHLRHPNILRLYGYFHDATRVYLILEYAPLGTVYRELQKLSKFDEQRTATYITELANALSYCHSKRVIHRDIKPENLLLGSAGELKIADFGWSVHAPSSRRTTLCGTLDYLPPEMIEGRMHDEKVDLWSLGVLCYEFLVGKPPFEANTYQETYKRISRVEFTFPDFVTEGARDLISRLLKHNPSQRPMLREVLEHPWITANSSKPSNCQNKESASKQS
Method: as §2
as §1, with “black, non-binding,” for “white,”, “Corning” for “Greiner”, “#4514, Corning),” for “#784207, Greiner),”, “10” for “16”, “The kinase reaction was” for “Plates were”, “quenched by the addition of 5 μL of Development Reagent (ThermoFisher Scientific proprietary). […]” for “read using a fluorescence plate reader.”
Aurora A (AurA): The 2×AURKA (Aurora A)/Ser/Thr 01 (ThermoFisher Scientific proprietary) mixture was prepared in 50 mM HEPES pH 7.5, 0.01% BRIJ-35, 10 mM MgCl2, 1 mM EGTA. […] After the 1 hour Kinase Reaction incubation, 5 μL of a 1:4096 dilution of Development Reagent was added.

AURKB (Aurora B) = AURKB (Aurora B) (Homo sapiens (Human), UniProt Q96GD4); assay: Aurora-B enzyme assay (Z'-LYTE); type: biochemical; conditions: 75 μM ATP; arithmetic mean of two or more experiments
AURKB (Aurora B), sequence (Q96GD4 whole entry): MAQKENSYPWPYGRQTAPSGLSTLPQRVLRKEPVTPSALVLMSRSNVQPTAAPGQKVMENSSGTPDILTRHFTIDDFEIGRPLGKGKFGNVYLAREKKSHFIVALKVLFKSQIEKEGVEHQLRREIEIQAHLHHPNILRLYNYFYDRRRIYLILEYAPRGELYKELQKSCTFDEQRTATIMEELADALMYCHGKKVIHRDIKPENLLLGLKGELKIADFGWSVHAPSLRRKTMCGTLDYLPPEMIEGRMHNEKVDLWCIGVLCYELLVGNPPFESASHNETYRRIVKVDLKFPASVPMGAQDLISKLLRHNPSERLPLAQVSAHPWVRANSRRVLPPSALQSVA
Method: as §2
as §1, with “black, non-binding,” for “white,”, “Corning” for “Greiner”, “#4514, Corning),” for “#784207, Greiner),”, “10” for “16”, “The kinase reaction was” for “Plates were”, “quenched by the addition of 5 μL of Development Reagent (ThermoFisher Scientific proprietary). […]” for “read using a fluorescence plate reader.”
Aurora B (AurB): The 2×AURKB (Aurora B)/Ser/Thr 01 (ThermoFisher Scientific proprietary) mixture was prepared in 50 mM HEPES pH 7.5, 0.01% BRIJ-35, 10 mM MgCl2, 1 mM EGTA. […] After the 1 hour Kinase Reaction incubation, 5 μL of a 1:4096 dilution of Development Reagent was added.

| Compound | IC50 (DNAPK) [nM] | TTK enz pIC50 (TTK) | JAK1 enz pIC50 (JAK1) | JAK2 enz pIC50 (JAK2) | JAK3 enz pIC50 (JAK3) | AurA enz pIC50 (AURKA (Aurora A)) | AurB enz pIC50 (AURKB (Aurora B)) | also measured |
| --- | --- | --- | --- | --- | --- | --- | --- | --- |
| Cc1cc2ncccc2cc1Nc1ncc2c(n1)n([C@@H]1CNC[C@H]1F)c(=O)n2C [Example 52, 9-((3R,4R)-4-fluoropyrrolidin-3-yl)-7-methyl-2-((7-methylquinolin-6-yl)amino)-7,9-dihydro-8H-purin-8-one] |  |  |  |  |  |  |  | Vd (Discrete PK Rat): 1.65 L/kg; Vd (Discrete PK Dog; in vivo): 5.4 L/kg |
| Cc1cc2ncccc2cc1Nc1ncc2c(n1)n([C@H]1CC[C@](C)(O)CC1)c(=O)n2C [Example 15, 9-((1r,4r)-4-hydroxy-4-methylcyclohexyl)-7-methyl-2-((7-methylquinolin-6-yl)amino)-7,9-dihydro-8H-purin-8-one] | 15.8 |  |  |  |  |  |  |  |
| Cc1cc2nnccc2cc1Nc1ncc2c(n1)n(C1CCOCC1)c(=O)n2C [Example 29, 7-methyl-2-((7-methylcinnolin-6-yl)amino)-9-(tetrahydro-2H-pyran-4-yl)-7,9-dihydro-8H-purin-8-one] |  | 6.4 | <5 | <5 | <5 | <5 | <5 |  |
| Cc1cc2ncccc2cc1Nc1ncc2c(n1)n(C1CCOCC1)c(=O)n2C [Example 30, 7-methyl-2-((7-methylquinolin-6-yl)amino)-9-(tetrahydro-2H-pyran-4-yl)-7,9-dihydro-8H-purin-8-one] |  | 6.4 | <5 | <5 | <5 | <5 | <5 |  |
| Cc1cc2ncccc2cc1Nc1ncc2c(n1)n([C@H]1CC[C@@](C)(O)CC1)c(=O)n2C [Example 14, 9-((1s,4s)-4-hydroxy-4-methylcyclohexyl)-7-methyl-2-((7-methylquinolin-6-yl)amino)-7,9-dihydro-8H-purin-8-one] | 10 |  |  |  |  |  |  |  |
| Cc1cc2ncccc2cc1Nc1ncc2c(n1)n(C1CCN(C)CC1)c(=O)n2C [Example 44, 7-methyl-9-(1-methylpiperidin-4-yl)-2-((7-methylquinolin-6-yl)amino)-7,9-dihydro-8H-purin-8-one] |  |  |  |  |  |  |  | Vd (Discrete PK Rat): 3.4 L/kg; Vd (Discrete PK Dog; plasma): 7.8 L/kg |
| Cc1cc2ncccc2cc1Nc1ncc2c(n1)n([C@@H]1CCN(C)C1)c(=O)n2C [Example 41, (R)-7-methyl-9-(1-methylpyrrolidin-3-yl)-2-((7-methylquinolin-6-yl)amino)-7,9-dihydro-8H-purin-8-one] |  | <5.1 | <5 | <5 | <5 | <5 | <5 |  |
| Cc1cc2ncccc2cc1Nc1ncc2c(n1)n([C@H]1CCN(C)C1)c(=O)n2C [Example 42, (S)-7-methyl-9-(1-methylpyrrolidin-3-yl)-2-((7-methylquinolin-6-yl)amino)-7,9-dihydro-8H-purin-8-one] |  | <5.1 | <5 | <5 | <5 | <5 | <5 |  |
| Cc1cc2nnccc2cc1Nc1ncc2c(n1)n(C1CCN(C)CC1)c(=O)n2C [Example 43, 7-methyl-2-((7-methylcinnolin-6-yl)amino)-9-(1-methylpiperidin-4-yl)-7,9-dihydro-8H-purin-8-one] |  | <5 | <5 | <5 | <5 | <5 | <5 |  |
| Cc1cc2nnccc2cc1Nc1ncc2c(n1)n([C@H]1CC[C@](C)(O)CC1)c(=O)n2C [Example 17, 9-((1r,4r)-4-hydroxy-4-methylcyclohexyl)-7-methyl-2-((7-methylcinnolin-6-yl)amino)-7,9-dihydro-8H-purin-8-one] | 100 |  |  |  |  |  |  |  |
| Cc1cc2nnccc2cc1Nc1ncc2c(n1)n([C@H]1CC[C@@](C)(O)CC1)c(=O)n2C [Example 16, 9-((1s,4s)-4-hydroxy-4-methylcyclohexyl)-7-methyl-2-((7-methylcinnolin-6-yl)amino)-7,9-dihydro-8H-purin-8-one] | 15.8 |  |  |  |  |  |  |  |
